From patent publication US8883798B2, “Pyrimidine compounds inhibiting the formation of nitric oxide and prostaglandin E2, method of production thereof and use thereof” (Ustav Organicke Chemie a Biochemie Akademie Ved CR, V.V.I., priority 2011, dated 2014)

Assays:
[1] = system: production of nitric oxide (NO); assay: Production of nitric oxide (NO) in cultures of mouse peritoneal cells stimulated with IFN-γ plus LPS (Griess reagent); assay type: cell-based, mice; conditions: Table 3B; substance 50 μmol·l^−1; IFN-g plus LPS; 24 h
Procedure, shortened: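 C57BL/6 mouse peritoneal cells (2×10^6/mL) stimulated with IFN-γ (5000 pg/mL) plus LPS (100 pg/mL), compounds at 50 μmol·l^−1. Nitrite measured by Griess reagent after 24 h, expressed as % of stimulated control (set 100%); IC50 is concentration reducing NO by 50%.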

[2] = system: peritoneal cells of mice; assay: Cell viability of mouse peritoneal cells (WST-1 kit); assay type: cell-based; conditions: Table 3B, substance 50 μmol·l^−1, 24 h
Procedure, shortened: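 C57BL/6 mouse peritoneal cells (1×10^6/mL) cultured 24 h with compounds at 50 μmol·l^−1. Viability read with WST-1 tetrazolium salt and expressed as percent of untreated control cells (100%).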

[3] = system: production of prostaglandin E2 (PGE2); assay: Production of prostaglandin E2 (PGE2) in cultures of mouse peritoneal cells stimulated with LPS (ELISA kit); assay type: cell-based, mice; conditions: Table 3B, 6 h
Procedure, shortened: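 C57BL/6 mouse peritoneal cells (3×10^6/mL) stimulated with LPS (10 ng/mL). PGE2 measured by ELISA.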

Row | melting point | Structure (SMILES) | other results
1 | 154 to 155 °C | CCCCc1c(Cl)nc(N)nc1-c1ccsc1 [Substance 42, 2-amino-5-butyl-4-chloro-6-(thiophen-3-yl)pyrimidine] | –
2 | 159 to 161 °C | C#CCc1c(Cl)nc(N)nc1Cl [Substance 33, 2-amino-4,6-dichloro-5-(prop-2-yn-1-yl)pyrimidine] | –
3 | 78 to 80 °C | CCc1c(Cl)nc(/N=C/N(C)C)nc1Cl [Substance 14, 4,6-dichloro-5-ethyl-2-{[(dimethylamino)methylene]amino}pyrimidine] | –
4 | 173 to 174 °C | CCC(C)c1c(I)nc(N)nc1I (stereo not shown) [Substance 36, 2-amino-5-(sec-butyl)-4,6-diiodopyrimidine] | –
5 | 62 to 63 °C | CCCCc1c(Cl)ncnc1Cl [Substance 61, 5-butyl-4,6-dichloropyrimidine] | –
6 | 93 to 95 °C | O=CNc1nc(Cl)c(Cc2ccccc2)c(Cl)n1 [Substance 59, 5-benzyl-4,6-dichloro-2-formamidopyrimidine] | –
7 | 113 to 115 °C | C=C(Cl)Cc1c(Cl)nc(NC=O)nc1Cl [Substance 60, 4,6-dichloro-5-(2-chloroallyl)-2-formamidopyrimidine] | –
8 | 123 to 124 °C | Cc1c(Cl)nc(NC=O)nc1Cl [Substance 48, 4,6-dichloro-2-formamido-5-methylpyrimidine] | –
9 | 63 to 65 °C | CN(C)/C=N/c1nc(Cl)c(Cc2ccccc2)c(Cl)n1 [Substance 23, 5-benzyl-4,6-dichloro-2-{[(dimethylamino)methylene]amino}pyrimidine] | –
10 | 67 to 68 °C | CCC(C)c1c(Cl)nc(/N=C/N(C)C)nc1Cl (stereo not shown) [Substance 21, 5-sec-butyl-4,6-dichloro-2-{[(dimethylamino)methylene]amino}pyrimidine] | –
11 | 183 to 185 °C | CCc1c(Cl)nc(N)nc1Cl [Substance 26, 2-amino-4,6-dichloro-5-ethylpyrimidine] | –
12 | 73 to 75 °C | CCCCc1c(Cl)nc(O)nc1Cl [Substance 65, 5-butyl-4,6-dichloro-2-hydroxypyrimidine] | –
13 | 92 to 94 °C | CCCc1c(Cl)nc(NC=O)nc1Cl [Substance 50, 4,6-dichloro-2-formamido-5-propylpyrimidine] | –
14 | 80 to 81 °C | C=CCc1c(Cl)nc(/N=C/N(C)C)nc1Cl [Substance 17, 5-allyl-4,6-dichloro-2-{[(dimethylamino)methylene]amino}pyrimidine] | –
15 | 159 to 160 °C | CCC(C)c1c(Cl)nc(N)nc1Cl (stereo not shown) [Substance 30, 2-amino-5-(sec-butyl)-4,6-dichloropyrimidine] | –
16 | 154 to 155 °C | Nc1nc(Br)c(Cc2ccccc2)c(Br)n1 [Substance 40, 2-amino-5-benzyl-4,6-dibromopyrimidine] | –
17 | 65 to 67 °C | CCCCc1c(Cl)nc(/N=C/N(C)C)nc1Cl [Substance 19, 5-butyl-4,6-dichloro-2-{[(dimethylamino)methylene]amino}pyrimidine] | –
18 | 170 to 171 °C | [2H]C([2H])([2H])C([2H])([2H])C([2H])([2H])C([2H])([2H])c1c(Cl)nc(N)nc1Cl [Substance 35, 2-amino-5-(perdeutero-butyl)-4,6-dichloropyrimidine] | –
19 | 195 to 196 °C | CCCCc1c(Cl)nc(N)nc1-c1cc2ccccc2o1 [Substance 44, 2-amino-4-(benzofuran-2-yl)-5-butyl-6-chloropyrimidine] | –
20 | 189 to 190 °C | Cc1c(Cl)nc(N)nc1Cl [Substance 25, 2-amino-4,6-dichloro-5-methylpyrimidine] | –
21 | 142 to 144 °C | CCCCc1c(-c2cc3ccccc3o2)nc(N)nc1-c1cc2ccccc2o1 [Substance 47, 2-amino-4,6-bis(benzofuran-2-yl)-5-butylpyrimidine] | –
22 | 95 to 96 °C | CC(C)c1c(Cl)nc(NC=O)nc1Cl [Substance 53, 4,6-dichloro-2-formamido-5-isopropylpyrimidine] | –
23 | 173 to 174 °C | CCCCc1c(-c2cccnc2)nc(N)nc1-c1cccnc1 [Substance 46, 2-amino-5-butyl-4,6-bis(pyridin-3-yl)pyrimidine] | –

Row | melting point | Structure (SMILES) | other results
24 | 189 to 190 °C | CCCCc1c(Cl)nc(N)nc1-c1cccnc1 [Substance 43, 2-amino-5-butyl-4-chloro-6-(pyridin-3-yl)pyrimidine] | –
25 | 175 to 176 °C | CC(C)c1c(Cl)nc(N)nc1Cl [Substance 29, 2-amino-4,6-dichloro-5-isopropylpyrimidine] | –
26 | 95 to 96 °C | O=CNc1nc(Cl)c(-c2ccccc2)c(Cl)n1 [Substance 56, 4,6-dichloro-2-formamido-5-phenylpyrimidine] | –
27 | 82 to 83 °C | C#CCc1c(Cl)nc(/N=C/N(C)C)nc1Cl [Substance 18, 4,6-dichloro-2-{[(dimethylamino)methylene]amino}-5-(prop-2-yn-1-yl)pyrimidine] | –
28 | 50 to 51 °C | CCCCc1c(Cl)nc(C)nc1Cl [Substance 62, 5-butyl-4,6-dichloro-2-methylpyrimidine] | –
29 | 83 to 84 °C | [2H]C([2H])([2H])C([2H])([2H])C([2H])([2H])C([2H])([2H])c1c(Cl)nc(NC=O)nc1Cl [Substance 52, 5-(perdeutero-butyl)-4,6-dichloro-2-formamidopyrimidine] | –
30 | 85 to 86 °C | C=CCc1c(Cl)nc(NC=O)nc1Cl [Substance 57, 5-allyl-4,6-dichloro-2-formamidopyrimidine] | –
31 | 175 to 177 °C | C=CCc1c(Cl)nc(N)nc1Cl [Substance 32, 5-allyl-2-amino-4,6-dichloropyrimidine] | –
32 | 80 to 81 °C | CCCCCCc1c(Cl)nc(NC=O)nc1Cl [Substance 55, 4,6-dichloro-2-formamido-5-hexylpyrimidine] | –
33 | 127 to 128 °C | C#CCc1c(Cl)nc(NC=O)nc1Cl [Substance 58, 4,6-dichloro-2-formamido-5-(prop-2-yn-1-yl)pyrimidine] | –
34 | 193 to 195 °C | Nc1nc(Cl)c(-c2ccccc2)c(Cl)n1 [Substance 31, 2-amino-4,6-dichloro-5-phenylpyrimidine] | –
35 | 198 to 199 °C | Nc1nc(I)c(Cc2ccccc2)c(I)n1 [Substance 38, 2-amino-5-benzyl-4,6-diiodopyrimidine] | –
36 | 154 to 155 °C | CCCCc1c(-c2ccccc2)nc(N)nc1-c1ccccc1 [Substance 45, 2-amino-5-butyl-4,6-diphenylpyrimidine] | –
37 | 67 to 68 °C | CN(C)/C=N/c1nc(Cl)c(-c2ccccc2)c(Cl)n1 [Substance 24, 4,6-dichloro-2-{[(dimethylamino)methylene]amino}-5-phenylpyrimidine] | –
38 | 84 to 86 °C | Cc1c(Cl)nc(/N=C/N(C)C)nc1Cl [Substance 13, 4,6-dichloro-5-methyl-2-{[(dimethylamino)methylene]amino}pyrimidine] | –
39 | 116 to 118 °C | CCc1c(Cl)nc(NC=O)nc1Cl [Substance 49, 4,6-dichloro-5-ethyl-2-formamidopyrimidine] | –
40 | – | CCCCc1c(-c2ccc(F)cc2)nc(N)nc1-c1ccsc1 [Substance 108] | Production of nitric oxide in % of the controls [1]: 64.92 ± 2.30; n = 4 % of the controls; Cell viabilities in % of the controls [2]: 124.71 ± 15.20; n = 4 % of the controls; Production of prostaglandins IC50 (μmol · 1^−1) average value and range of values [3]: 47.21 ± 2.59; n = 2 μmol · 1^−1
41 | – | CCCCc1c(Cl)nc(NCc2ccco2)nc1Cl [Substance 144] | Production of nitric oxide in % of the controls [1]: 83.33 ± 11.72; n = 6 % of the controls; Cell viabilities in % of the controls [2]: 150.27 ± 4.96; n = 8 % of the controls; Production of prostaglandins IC50 (μmol · 1^−1) average value and range of values [3]: 0.20 ± 0.33; n = 4 μmol · 1^−1
42 | – | CCCCc1c(-c2ccco2)nc(N)nc1-c1cccs1 [Substance 99] | Production of nitric oxide in % of the controls [1]: 31.27 ± 2.12; n = 4 % of the controls; Cell viabilities in % of the controls [2]: 55.22 ± 5.10; n = 4 % of the controls; Production of prostaglandins IC50 (μmol · 1^−1) average value and range of values [3]: 13.25 ± 6.33; n = 4 μmol · 1^−1
43 | – | CCCCc1c(-c2cccnc2)nc(N)nc1-c1cc2ccccc2o1 [Substance 119] | Production of nitric oxide in % of the controls [1]: 70.13 ± 10.10; n = 6 % of the controls; Cell viabilities in % of the controls [2]: 76.10 ± 6.23; n = 8 % of the controls; Production of prostaglandins IC50 (μmol · 1^−1) average value and range of values [3]: 71.89 ± 0.36; n = 2 μmol · 1^−1
44 | – | CCCCc1c(-c2cc3ccccc3o2)nc(N)nc1-c1cccs1 [Substance 121] | Production of nitric oxide in % of the controls [1]: 55.17 ± 7.88; n = 10 % of the controls; Cell viabilities in % of the controls [2]: 90.22 ± 7.99; n = 12 % of the controls; Production of prostaglandins IC50 (μmol · 1^−1) average value and range of values [3]: 62.54 ± 21.79; n = 6 μmol · 1^−1
45 | – | CCCCc1c(-c2cc3ccccc3o2)nc(N)nc1-c1cc2ccccc2o1 [Substance 125] | Production of nitric oxide in % of the controls [1]: 67.76 ± 6.80; n = 6 % of the controls; Cell viabilities in % of the controls [2]: 76.82 ± 8.89; n = 8 % of the controls; Production of prostaglandins IC50 (μmol · 1^−1) average value and range of values [3]: 73.07 ± 1.91; n = 2 μmol · 1^−1

Row | Structure (SMILES) | melting point | other results
46 | CCCCc1c(Cl)nc(N)nc1Cl [Substance 28, 2-amino-5-butyl-4,6-dichloropyrimidine] | 169 to 170 °C | –
47 | Nc1nc(Cl)c(Cc2ccccc2)c(Cl)n1 [Substance 34, 2-amino-5-benzyl-4,6-dichloropyrimidine] | 196 to 197 °C | –
48 | CCCCc1c(Cl)nc(NC=O)nc1Cl [Substance 51, 5-butyl-4,6-dichloro-2-formamidopyrimidine] | 82 to 83 °C | –
49 | CCC(C)c1c(Cl)nc(NC=O)nc1Cl (stereo not shown) [Substance 54, 5-(sec-butyl)-4,6-dichloro-2-formamidopyrimidine] | 92 to 93 °C | –
